According to patent US20050209295A1, “Methimazole derivatives and tautomeric cyclic thiones to inhibit cell adhesion” (priority 2004, published 2005):

Tests used:
Format in all cases: cell-based, human
ICAM-1 = experiment: ELISA of TNF-α induced ICAM-1 protein on HAEC
Protocol: Cell culture and treatment of HAEC: Human aortic endothelial cells (HAEC; Cambrex Bio Science Walkersville, Inc., Walkersville, Md.) are cultured in M199 supplemented with 8% FBS, 100 μg/ml heparin, 10 ng/ml endothelial growth factor, 100 μg/ml hypothalamus extract, 2 mM L-glutamine, 1% non-essential amino acids, 100 units/ml penicillin and 100 μg/ml streptomycin. HAEC are subcultured on gelatin pre-coated: 96-well tissue culture plates (Corning Incorporated; Corning, N.Y.) for viability assays and ELISA; 100-mm tissue culture dishes (BD Falcon; Franklin Lakes, N.J.) for Northern blot analyses, Western blot analyses and EMSA; 35-mm tissue culture dishes (Corning) for adhesion assays and on 24-well tissue culture plates for luciferase promoter assays (BD Falcon). All experiments are performed with confluent HAEC monolayers. Unless noted otherwise, HAEC are treated with 25 ng/ml TNF-α, in the absence or presence of C-10 or 0.25% DMSO (carrier control for C-10), for 2-24 hrs. […]
HAEC are washed with cold HBSS+, fixed in 1% formaldehyde at 4° C. for 20 min., washed with cold HBSS+, and incubated in cold M199 containing 8% FBS. […] Following a 10 min. incubation at room temperature, the absorbance of the fluid in each well is determined at 450 nm using a micro-well plate spectrophotometer (Molecular Devices; Sunnyvale, Calif.). […]

NF-κB = experiment: EMSA of TNF-α induced NF-κB binding activity to VCAM-1 promoter; conditions: 0.5 mM; 2 hr. TNF-α; HAEC nuclear extract
Protocol: Nuclear Extracts and EMSA: Nuclear extracts are prepared from harvested HAEC using NE-PER® extraction reagents (Pierce Chemical Co.; Rockford, Ill.) in the presence of a protease inhibitor cocktail (PMSF, Leupeptin, Pepstatin-A). Oligonucleotides (Biosynthesis Inc.; Lewisville, Tex.) are annealed and precipitated double stranded oligonucleotides end labeled with γ-^32P-ATP using T4 polynucleotide kinase enzyme. Binding reactions (20 min., room temperature) included ^32P-labeled probe (activity 100,000 cpm), 3-6 μg HAEC nuclear extract, 1 μg poly(dI-dC), 1 mM DTT, 10% glycerol and 1× binding buffer. Binding buffer (10×) for NF-κB EMSA is 200 mM HEPES-KOH (pH7.9), 340 mM KCl, 50 mM MgCl2, 5 mM EDTA (pH 8.0), 1% Triton X-100. Binding buffer (10×) for IRF-1 EMSA is 100 mM Tris-HCL (pH 7.5), 500 mM NaCl, 50 mM MgCl2, 10 mM EDTA (pH 8.0). In competition studies, nuclear extracts are incubated with 100 fold molar excess of unlabeled double stranded oligonucleotide. In supershift studies, nuclear extracts are incubated with 2 μg of appropriate antibodies. After the incubations, reaction mixtures are electrophoresed (160V, room temperature) on 5% non-denaturing polyacrylamide gels containing 5% glycerol in 1×TBE (50 mM Tris, 50 mM boric acid, and 1 mM EDTA). Gels are dried and autoradiographed. Each experiment is replicated at least twice. […]

VCAM-1 = experiment: TNF-alpha-induced VCAM-1 RNA levels in aortic endothelial cells (Northern blot); conditions: for % INHIBITION of TNF-alpha-induced VCAM-1 RNA levels: aortic endothelial cells, mean ± SD
Protocol: (§1) Cell culture and treatment of HAEC: Human aortic endothelial cells (HAEC; Cambrex Bio Science Walkersville, Inc., Walkersville, Md.) are cultured in M199 supplemented with 8% FBS, 100 μg/ml heparin, 10 ng/ml endothelial growth factor, 100 μg/ml hypothalamus extract, 2 mM L-glutamine, 1% non-essential amino acids, 100 units/ml penicillin and 100 μg/ml streptomycin. HAEC are subcultured on gelatin pre-coated: 96-well tissue culture plates (Corning Incorporated; Corning, N.Y.) for viability assays and ELISA; 100-mm tissue culture dishes (BD Falcon; Franklin Lakes, N.J.) for Northern blot analyses, Western blot analyses and EMSA; 35-mm tissue culture dishes (Corning) for adhesion assays and on 24-well tissue culture plates for luciferase promoter assays (BD Falcon). All experiments are performed with confluent HAEC monolayers. Unless noted otherwise, HAEC are treated with 25 ng/ml TNF-α, in the absence or presence of C-10 or 0.25% DMSO (carrier control for C-10), for 2-24 hrs. The concentration of DMSO is held constant at 0.25% (unless indicated otherwise) for all of the C-10 conditions.
HAEC are washed with PBS and total RNA extracted using a commercial kit (RNeasy Mini Kit; Qiagen Inc.; Valencia, Calif.). 12 μg of total RNA per lane is resolved on 1% denaturing agarose gels containing 0.66M formaldehyde. Gels are capillary blotted on Nytran membranes (Schleicher and Schuell Inc.; Keene, N.H.), UV cross-linked, and used for hybridization. The probe for IRF-1 has been previously described (33). The G3PDH cDNA is from Clontech (Palo Alto, Calif.). […]; cDNAs are labeled with α-^32P-dCTP using the Ladderman Labeling Kit (Takara Biochemical Inc.; Berkeley, Calif.) (33). Northern blots are developed using a BAS 1500 Bioimaging Analyzer (Fuji Photo Film Co., Ltd. Medical Systems USA Inc.; Stanford, Calif.). Each experiment is replicated at least twice.

HAEC = HAEC viability (MTS assay and visual inspection); conditions: concentrations used in this study
Protocol: as §1

IRF-1 = experiment: TNF-alpha-induced IRF-1 protein levels (Western blot)
Protocol: as §1
Western blot analysis: Whole cell lysates are prepared in lysis buffer (150 mM NaCl, 1% IGEPAL CA-630, 50 mM Tris-HCL pH 8.0). 20 μg of lysates are then resolved on 4-12% Bis-Tris PAGE gels under denaturing conditions using the NuPAGE Bis-Tris System (Invitrogen; Carlsbad, Calif.). Proteins are transferred to nitrocellulose membranes, which are probed with IRF-1 antibody. Subsequent binding of HRP conjugated goat anti-rabbit Ab (sc-2054, Santa Cruz Biotechnology, Inc.) is detected using Lumigen PS-3 detection reagents (Amersham Pharmacia Biotech.; Piscataway, N.J.).

SMILES: Cn1c(-c2ccccc2)cnc1S [5-Phenylmethimazole]
- effect on TNF-α induced protein expression of ICAM-1 (ICAM-1; 4 hr. TNF-α): little to no effect
- effect on TNF-α induced protein expression of ICAM-1 (ICAM-1; 24 hr. TNF-α): no effect
- effect on TNF-α dependent NF-κB complex formation (EMSA) (NF-κB): no effect
- % INHIBITION of TNF-alpha-induced VCAM-1 RNA levels (VCAM-1; 5.0 mM): 99 ± 3%
- % INHIBITION of TNF-alpha-induced VCAM-1 RNA levels (VCAM-1; 10 :M): 75 ± 7%
- % INHIBITION of TNF-alpha-induced VCAM-1 RNA levels (VCAM-1; 100 :M): 99 ± 4%
- effect on TNF-α induced VCAM-1 mRNA expression (VCAM-1; 2 hr. TNF-α, HAEC, Northern blot): reduced, in a dose-dependent manner
- effect on TNF-α induced VCAM-1 mRNA (VCAM-1; 24 hr. TNF-α, HAEC, Northern blot): reduced, in a dose dependent manner
- effect on HAEC viability (HAEC): little to no effect
- effect on TNF-α induced IRF-1 protein expression (IRF-1; 0.5 mM or 1 mM, 2 hr. TNF-α, HAEC): reduced
- % INHIBITION of TNF-alpha-induced IRF-1 Protein levels (IRF-1; 10 :M, mean ± SD): 76 ± 12%
- inhibition at 5000 µM (IRF-1; Homo sapiens, 5 mM, mean ± SD): 95 ± 5%
